Source: article PMC12400753 (Respiratory Research, 2025)

What was measured:
[1] = system: human precision cut lung slices from donors with pulmonary fibrosis; test: Fibrotic marker mRNA (qPCR) in cryopreserved PCLS from donors with pulmonary fibrosis; assay type: cell-based; conditions: PIPE-791, 6 days, 6 donors
Description: Slices were snap frozen and processed for transcript analysis by quantitative PCR. […] Concurrently, we evaluated two well-established, clinical stage antifibrotic mechanisms in this setting: an αvβ1/6 inhibitor (bexotegrast, PLN-74809) and a PDE4B inhibitor (nerandomilast, BI 1015550).
(§1) Precision cut lung slices were obtained from Anabios (San Diego, CA) and collected in accordance with their ethics policy (https://anabios.com/ethics-statement/). Donor demographics are available in Additional File 1. Slices were thawed as per vendor instructions. Briefly, PCLS were thawed at 37 °C then transferred to media consisting of DMEM/F12, Antibiotic-Antimytotic, and Penicillin-Streptomycin. PCLS were gently rinsed then transferred to a larger dish. A small tissue sample was excised with a scalpel for immunohistochemistry and qPCR characterization. […] Final concentration of DMSO was 0.1%. Media and compound were replaced every two days for a total of 6 days. At the end of the experiment, slices were collected and snap frozen. Quantitative PCR: RNA was extracted using RNEasy columns. RNA was reverse transcribed using qScript XLT per manufacturer’s instructions. Genes of interest were assessed by qPCR using Perfecta SYBR Green on a StepOne Plus Thermocycler (ABI). Parameters were as follows: 95 °C 30 s, then 45 cycles of 95 °C for 5 s and 60 °C for 30 s.

[2] = system: normal, non-fibrotic human PCLS; test: Fibrotic marker mRNA (qPCR) in normal PCLS; assay type: cell-based; conditions: n=5 donors
Procedure: as §1

[3] = Rat plasma pharmacokinetics after oral dose; assay type: in vivo; conditions: 10 mg/kg oral, n=2
Procedure: This distinct, long-lived pharmacokinetic profile would support a dosing frequency less than that of other LPAR1 antagonists described in the literature.
Plasma and lung homogenate samples were thawed and further diluted as necessary with naïve mouse plasma or naïve lung homogenate matrix. […] Plasma drug concentrations were calculated by comparison of peak area ratios of analyte/IS to the prepared calibration standards using Sciex Analyst software.

[4] = system: LPA-induced mast cell histamine release; test: In vivo LPA-induced histamine release; design: species or system mouse
Procedure: Female CD-1 mice (Envigo) were allowed to acclimate for ~ 1 week. Animals were subject to a 12 h light – 12 h dark cycle. Mice were multi-housed in Innorack IVC mouse racks (Innovive, San Diego, CA) with access to water and standard rodent chow ad libitum. […] Three hours or 24 h after a single dose or after the last of 4 repeated administrations, 150 µL FAF-PBS/BSA (Control) or LPA (300 µg in 150 µL) was administered IV via the lateral tail vein and mice were immediately placed into an isoflurane chamber. Two minutes later, mice were euthanized by decapitation and trunk blood collected into K3EDTA tubes and stored on wet ice until processing to plasma (1450 x g, 10 min, 4 °C). Plasma was aliquoted into two 96-well polypropylene plates and transferred to −80 °C for storage until analysis for histamine by EIA.

[5] = system: bleomycin-induced macrophage activation; test: Intratracheal bleomycin, therapeutic dosing: BAL macrophage size and IL-1β; assay type: in vivo, mouse; conditions: 3 mg/kg oral once a day from day 3 after bleomycin
Procedure: To further support our ex vivo macrophage findings, we used a therapeutic paradigm where mice were challenged in vivo with intratracheal instillation of bleomycin. […] The fluid was centrifuged and supernatant and cell fractions analyzed.
Mice were dosed until day 14 at which point BAL fluid was collected. BAL was centrifuged and cells were transferred to culture plates and incubated overnight at 37 °C. Plates were spun down and supernatant and cell pellet analysed separately. Supernatant was analyzed for IL-1β as described for mouse above. The cell pellet for each condition was plated at 3 × 10^3 cells/well in black clear bottom 96-well plates. After settling, cells were fixed in formalin and immunostained against CD68 and detected with a donkey anti-rat Alexa 488 conjugated antibody. Image acquisition and analysis was performed using a Nikon A1R confocal microscope and NIS Elements software.

LPAR1 = LPAR1 (Homo sapiens, UniProt Q92633); test: LPA-induced calcium mobilization in transiently transfected HEK293T cells; assay type: cell-based; design: host or cells: HEK293T; conditions: 3 h preincubation; LPA at EC80 5 µM
Procedure: We had previously assessed selectivity against LPAR2 and 3 [11]. […] Human LPAR1-6 plasmids were each transiently transfected into HEK293T cells and the EC80 (effective concentration producing 80% maximal effect) for LPA activation empirically determined. Selectivity was then tested in a concentration response paradigm using a 3 h preincubation followed by LPA-induced calcium mobilization.
Plasmids containing human LPAR1-6 were obtained from Origene (Rockville, MD) and maxiprepped at Eton Biosciences (San Diego, CA). Transfection mix was prepared by adding Fugene 6 transfection mix to serum free media and 0.1 µg plasmid. After a 20 m incubation, HEK293T cells (ATCC, Manassas VA) were lifted with Accutase and added to the Fugene mix at a final concentration of 0.5 × 10^4 cells/well. Cells were then plated on black clear bottom 96-well plates and incubated overnight in a 37 °C, 5% CO2 incubator. […] During the last hour of incubation, media was removed and replaced with Fluo-4 NW calcium assay dye prepared as per manufacturer’s recommendations in assay buffer. Agonist plates containing LPA were prepared for individual receptor subytpes using their respective EC80. Calcium mobilization was measured as per manufacturer’s directions on a Flexstation 3 (Molecular Devices, San Jose, CA).

Chain of LPAR1 (Q92633 whole entry): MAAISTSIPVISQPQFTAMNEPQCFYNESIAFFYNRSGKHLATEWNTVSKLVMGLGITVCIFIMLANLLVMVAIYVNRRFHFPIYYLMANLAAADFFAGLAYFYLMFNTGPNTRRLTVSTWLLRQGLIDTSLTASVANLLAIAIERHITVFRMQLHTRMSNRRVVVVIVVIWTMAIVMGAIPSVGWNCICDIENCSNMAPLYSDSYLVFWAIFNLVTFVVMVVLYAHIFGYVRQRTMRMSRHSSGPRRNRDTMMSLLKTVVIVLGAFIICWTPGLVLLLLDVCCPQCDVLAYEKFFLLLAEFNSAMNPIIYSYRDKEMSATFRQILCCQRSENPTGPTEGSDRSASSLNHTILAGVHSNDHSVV

COc1ccc(NC(=O)N(c2ccccc2C(C)C)C2CCC(C(=O)O)CC2)c(OC(F)F)n1 (stereo not shown) [PIPE-791]
COL1A1 mRNA expression vs vehicle [1]: significantly less expression
COL3A1 mRNA expression vs vehicle [1]: significantly less expression
LPAR1 mRNA levels vs vehicle [1]: not significantly affected
SERPINE1 mRNA expression vs vehicle [1]: significantly less expression
TIMP1 mRNA expression vs vehicle [1]: significantly less expression
expression of fibrotic marker transcripts (COL1A1, COL3A1, SERPINE1, TIMP1, LPAR1) [2]: did not alter the expression of any of the fibrotic marker transcripts tested
plasma unbound concentration at 24 h post-dose versus calcium mobilization IC50 [3]: exceeded the in vitro calcium mobilization IC50
blockade of LPA-induced histamine release ([4]; oral, 4 consecutive days (steady state), LPA 3 or 24 h after final dose): significant efficacy at 0.3 and 3 mg/kg was observed at both timepoints
blockade of LPA-induced histamine release ([4]; single oral dose 0.3 mg/kg, LPA challenge 3 or 24 h later): significance was observed at 24 h but not at 3 h
blockade of LPA-induced histamine release ([4]; single oral dose 3 mg/kg, LPA challenge 3 or 24 h later): significant blockade of histamine release
reduction of IL-1β in BAL supernatant [5]: 69.2%
reduction of macrophage cell size (CD68 area) ([5]; BAL cells): 56%
IC50 (LPAR1): 8 nM
